Measured values from PubChem BioAssay (NCI).
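The compound was tested at five concentrations on cells cultured in 96-well plates, with a 48-hour exposure period. GI50 = concentration required for 50% inhibition of growth. The concentration for full growth arrest is given as TGI.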

Legend:
Test in all cases: DTP human tumour cell line panel, 48 h
[1] = tested on: 786-0 renal
[2] = tested on: A498 renal
[3] = tested on: A549 NSCLC
[4] = tested on: ACHN renal
[5] = tested on: BT-549 breast
[6] = tested on: CAKI-1 renal
[7] = tested on: CCRF-CEM leukemia
[8] = tested on: COLO 205 colon
[9] = tested on: DU-145 prostate
[10] = tested on: EKVX NSCLC
[11] = tested on: HCC-2998 colon
[12] = tested on: HCT-116 colon
[13] = tested on: HCT-15 colon
[14] = tested on: HL-60(TB) leukemia
[15] = tested on: HOP-62 NSCLC
[16] = tested on: HOP-92 NSCLC
[17] = tested on: HS 578T breast
[18] = tested on: HT29 colon
[19] = tested on: IGROV1 ovarian
[20] = tested on: K-562 leukemia
[21] = tested on: KM12 colon
[22] = tested on: LOX IMVI melanoma
[23] = tested on: M14 melanoma
[24] = tested on: MALME-3M melanoma
[25] = tested on: MCF7 breast
[26] = tested on: MDA-MB-231 breast
[27] = tested on: MDA-MB-435
[28] = tested on: MDA-MB-468 breast
[29] = tested on: MOLT-4 leukemia
[30] = tested on: NCI-H226 lung
[31] = tested on: NCI-H23 lung
[32] = tested on: NCI-H460 lung
[33] = tested on: NCI-H522 lung
[34] = tested on: NCI/ADR-RES ovarian
[35] = tested on: OVCAR-3 ovarian
[36] = tested on: OVCAR-4 ovarian
[37] = tested on: OVCAR-5 ovarian
[38] = tested on: OVCAR-8 ovarian
[39] = tested on: PC-3 prostate
[40] = tested on: RPMI-8226 leukemia
[41] = tested on: RXF 393 renal
[42] = tested on: SF-268 CNS
[43] = tested on: SF-295 CNS
[44] = tested on: SF-539 CNS
[45] = tested on: SK-MEL-2 melanoma
[46] = tested on: SK-MEL-28 melanoma
[47] = tested on: SK-MEL-5 melanoma
[48] = tested on: SK-OV-3 ovarian
[49] = tested on: SN12C renal
[50] = tested on: SNB-19 CNS
[51] = tested on: SNB-75 CNS
[52] = tested on: SR leukemia
[53] = tested on: SW-620 colon
[54] = tested on: T-47D breast
[55] = tested on: TK-10 renal
[56] = tested on: U251 CNS
[57] = tested on: UACC-257 melanoma
[58] = tested on: UACC-62 melanoma
[59] = tested on: UO-31 renal

CC1=C(c2cc(-c3ccc(Cl)cc3)c(C#N)c(N)n2)C(c2ccccc2)NC(=S)N1 (stereo not drawn)
GI50 [1]: 16.3 µM | TGI [1]: 35.4 µM | GI50 [2]: > 44.5 µM | TGI [2]: > 62.8 µM | GI50 [3]: 48.8 µM | TGI [3]: > 88 µM | GI50 [4]: 15.5 µM | TGI [4]: 30.9 µM | GI50 [5]: 14.1 µM | TGI [5]: 29.5 µM | GI50 [6]: 16.5 µM | TGI [6]: 43.9 µM | GI50 [7]: 0.303 µM | TGI [7]: 16.9 µM | GI50 [8]: 17 µM | TGI [8]: 33.5 µM | GI50 [9]: 13.1 µM | TGI [9]: 29.3 µM | GI50 [10]: 16.4 µM | TGI [10]: 42.6 µM | GI50 [11]: 13.4 µM | TGI [11]: 26.4 µM | GI50 [12]: 0.147 µM | TGI [12]: 17.6 µM | GI50 [13]: 0.171 µM | TGI [13]: 18.2 µM | GI50 [14]: 0.168 µM | GI50 [15]: 16 µM | TGI [15]: 37 µM | GI50 [16]: 19.1 µM | TGI [16]: 62.7 µM | GI50 [17]: 19.1 µM | TGI [17]: > 96.2 µM | GI50 [18]: 12.2 µM | TGI [18]: 27.6 µM | GI50 [19]: 17.2 µM | TGI [19]: 36.4 µM | GI50 [20]: 0.277 µM | TGI [20]: > 100 µM | GI50 [21]: 16.9 µM | TGI [21]: 35.5 µM | GI50 [22]: 1.34 µM | TGI [22]: 14.4 µM | GI50 [23]: 3.33 µM | TGI [23]: 25.4 µM | GI50 [24]: 14 µM | TGI [24]: 32.1 µM | GI50 [25]: 0.177 µM | TGI [25]: 28.5 µM | GI50 [26]: 13.6 µM | TGI [26]: 29.6 µM | GI50 [27]: 7.44 µM | TGI [27]: 30.3 µM | GI50 [28]: 8.45 µM | TGI [28]: 22.7 µM | GI50 [29]: 1.37 µM | TGI [29]: > 66.2 µM | GI50 [30]: 15.8 µM | TGI [30]: 44.6 µM | GI50 [31]: 13.6 µM | TGI [31]: 29.6 µM | GI50 [32]: 20.3 µM | TGI [32]: 53.8 µM | GI50 [33]: 14.7 µM | TGI [33]: 29.5 µM | GI50 [34]: 0.671 µM | TGI [34]: 26.2 µM | GI50 [35]: 13.8 µM | TGI [35]: 47.4 µM | GI50 [36]: 28 µM | TGI [36]: > 100 µM | GI50 [37]: 17.8 µM | TGI [37]: 35.5 µM | GI50 [38]: 20 µM | TGI [38]: > 86.4 µM | GI50 [39]: 11 µM | TGI [39]: 53.1 µM | GI50 [40]: 0.692 µM | TGI [40]: 34.1 µM | GI50 [41]: 11.6 µM | TGI [41]: 24.3 µM | GI50 [42]: 17.6 µM | TGI [42]: 67.2 µM | GI50 [43]: 10.8 µM | TGI [43]: 24.4 µM | GI50 [44]: 10.1 µM | TGI [44]: 23 µM | GI50 [45]: 17.5 µM | TGI [45]: 34.2 µM | GI50 [46]: 14.9 µM | TGI [46]: 30 µM | GI50 [47]: 6.62 µM | TGI [47]: 20.1 µM | GI50 [48]: 23.7 µM | TGI [48]: 67.9 µM | GI50 [49]: 5.86 µM | TGI [49]: 21.6 µM | GI50 [50]: 16.7 µM | TGI [50]: 53.8 µM | GI50 [51]: 7.01 µM | TGI [51]: 47 µM | GI50 [52]: 0.0842 µM | TGI [52]: > 48.7 µM | GI50 [53]: 11 µM | TGI [53]: 32.5 µM | GI50 [54]: 11.4 µM | TGI [54]: 47.5 µM | GI50 [55]: 23.1 µM | TGI [55]: 61 µM | GI50 [56]: 12.5 µM | TGI [56]: 28.1 µM | GI50 [57]: 16.1 µM | TGI [57]: 38.8 µM | GI50 [58]: 13.1 µM | TGI [58]: 26.9 µM | GI50 [59]: 13.3 µM | TGI [59]: 26.3 µM

CCNCCCn1c2c(c3cc(OC)c(OC)cc3c1=O)C(=O)c1cc3c(nc1-2)OCO3
GI50 [1]: 1.39 µM | TGI [1]: 2.84 µM | GI50 [2]: 9.07 µM | TGI [2]: 23 µM | GI50 [3]: 1.22 µM | TGI [3]: 18.4 µM | GI50 [4]: 0.755 µM | TGI [4]: 7.05 µM | GI50 [5]: 6.82 µM | TGI [5]: 25.1 µM | GI50 [6]: 0.946 µM | TGI [6]: 16.6 µM | GI50 [7]: 0.0351 µM | TGI [7]: 1.23 µM | GI50 [8]: 3.07 µM | TGI [8]: 19.6 µM | GI50 [9]: 0.548 µM | TGI [9]: 12.5 µM | GI50 [10]: 5.26 µM | TGI [10]: 20 µM | GI50 [11]: 4.07 µM | TGI [11]: 18.9 µM | GI50 [13]: 1.14 µM | TGI [13]: 2.54 µM | GI50 [14]: 1.63 µM | TGI [14]: 7.5 µM | GI50 [15]: 0.205 µM | TGI [15]: 10.2 µM | GI50 [16]: 7.73 µM | TGI [16]: 23.1 µM | GI50 [17]: 10.4 µM | TGI [17]: 29.8 µM | GI50 [18]: 0.706 µM | TGI [18]: 16.1 µM | GI50 [19]: 12.1 µM | TGI [19]: 25.7 µM | GI50 [20]: 0.483 µM | TGI [20]: 2.75 µM | GI50 [21]: 10.4 µM | TGI [21]: 23.8 µM | GI50 [22]: 0.487 µM | TGI [22]: 1.9 µM | GI50 [23]: 1.97 µM | TGI [23]: 12.3 µM | GI50 [24]: 1.35 µM | TGI [24]: 2.76 µM | GI50 [25]: 0.0754 µM | TGI [25]: 10.3 µM | GI50 [26]: 1.91 µM | TGI [26]: 6.14 µM | GI50 [27]: 1.38 µM | TGI [27]: 2.89 µM | GI50 [28]: 0.431 µM | TGI [28]: 2.51 µM | GI50 [29]: 0.048 µM | TGI [29]: 2.13 µM | GI50 [30]: 1.27 µM | TGI [30]: 3.2 µM | GI50 [31]: 0.324 µM | TGI [31]: 3.76 µM | GI50 [32]: 0.239 µM | TGI [32]: 1.39 µM | GI50 [33]: 0.442 µM | TGI [33]: 23 µM | GI50 [34]: 1.56 µM | TGI [34]: 4.14 µM | GI50 [35]: 11.9 µM | TGI [35]: 24.7 µM | GI50 [36]: 14.2 µM | TGI [36]: 31.9 µM | GI50 [37]: 3.69 µM | TGI [37]: 16.5 µM | GI50 [38]: 1.82 µM | TGI [38]: 12 µM | GI50 [39]: 1.28 µM | TGI [39]: 18.9 µM | GI50 [40]: 0.641 µM | TGI [40]: 2.97 µM | GI50 [41]: 1.35 µM | TGI [41]: 5.66 µM | GI50 [42]: 0.85 µM | TGI [42]: 16.8 µM | GI50 [43]: 0.23 µM | TGI [43]: 12.7 µM | GI50 [44]: 0.675 µM | TGI [44]: 4.1 µM | GI50 [45]: > 100 µM | TGI [45]: > 100 µM | GI50 [46]: 2.56 µM | TGI [46]: 8.53 µM | GI50 [47]: 0.921 µM | TGI [47]: 2.14 µM | GI50 [48]: 1.14 µM | TGI [48]: 11.8 µM | GI50 [49]: 4.61 µM | TGI [49]: 17.4 µM | GI50 [50]: 1.69 µM | TGI [50]: 17.5 µM | GI50 [51]: 0.495 µM | TGI [51]: 9.41 µM | GI50 [52]: 0.307 µM | TGI [52]: 2.39 µM | GI50 [53]: 0.631 µM | TGI [53]: 20.1 µM | GI50 [54]: 1.06 µM | TGI [54]: 13.9 µM | GI50 [55]: 17.6 µM | TGI [55]: 33.3 µM | GI50 [56]: 0.348 µM | TGI [56]: 14.7 µM | GI50 [57]: 13.4 µM | TGI [57]: 27.7 µM | GI50 [58]: 1.81 µM | TGI [58]: 15.4 µM | GI50 [59]: 3.09 µM | TGI [59]: 16.3 µM
